{"source": "patent US20240024379A1", "about": "“EXTRACT OF BACTERIA OF THE GENUS SPHINGOMONAS” (L’OREAL, priority 2020, published 2024)", "assay_type_in_all_cases": "cell-based", "key": {"[1]": {"system": "IgE production by human B lymphocytes", "assay": "IgE production by human B lymphocytes stimulated with anti-CD40 and IL-4, ELISA", "conditions": "Anti CD-40 10 μg/ml + IL-4 10 ng/ml, 14 days; for IgE: single replicates", "description": "In the study, the effect of the extract has been assessed on the IgE production by purified human B lymphocytes (isolation of the CD19^+ lymphocytes from mononuclear cells of the peripheral blood). More specifically, the IgE production has been induced by the stimulation of the B lymphocytes with the combination of anti-CD40 antibody and of IL-4. After 14 days of incubation, the amount of IgE released in the culture supernatants has been quantified using a specific ELISA kit. Concomitantly with the tested extract, 3 other molecules have also been assessed in this test. the reference standard CpG-ODN 2006 (a TLR9 ligand), as well as IFN-γ and PGE2 have been tested as reference compounds.\nThe B lymphocytes CD19^+ have been isolated, sown in 24-well plates and incubated over one night in the culture medium. Afterwards, the compounds to be tested, tested alone or in combination, and the reference compounds have been added, or not (controls), and the cells have been pre-incubated for 2 hours. Afterwards, the inducer (a CD40+IL-4 combination) has been added, or not (unstimulated control) and the treatments with the test or the reference compounds have been repeated. Afterwards, the cells have been incubated for 14 days at a final density of 1.7×10^6 cells/ml). […]\nThe amount of IgE released in the culture supernatants has been measured using a specific ELISA kit according to the instructions of the supplier."}, "hTLR2": {"target": "T1, hTLR2 (Homo sapiens, UniProt O60603)", "T1 construct": "host or cells: HEK-293", "T1 sequence (O60603 21-784)": "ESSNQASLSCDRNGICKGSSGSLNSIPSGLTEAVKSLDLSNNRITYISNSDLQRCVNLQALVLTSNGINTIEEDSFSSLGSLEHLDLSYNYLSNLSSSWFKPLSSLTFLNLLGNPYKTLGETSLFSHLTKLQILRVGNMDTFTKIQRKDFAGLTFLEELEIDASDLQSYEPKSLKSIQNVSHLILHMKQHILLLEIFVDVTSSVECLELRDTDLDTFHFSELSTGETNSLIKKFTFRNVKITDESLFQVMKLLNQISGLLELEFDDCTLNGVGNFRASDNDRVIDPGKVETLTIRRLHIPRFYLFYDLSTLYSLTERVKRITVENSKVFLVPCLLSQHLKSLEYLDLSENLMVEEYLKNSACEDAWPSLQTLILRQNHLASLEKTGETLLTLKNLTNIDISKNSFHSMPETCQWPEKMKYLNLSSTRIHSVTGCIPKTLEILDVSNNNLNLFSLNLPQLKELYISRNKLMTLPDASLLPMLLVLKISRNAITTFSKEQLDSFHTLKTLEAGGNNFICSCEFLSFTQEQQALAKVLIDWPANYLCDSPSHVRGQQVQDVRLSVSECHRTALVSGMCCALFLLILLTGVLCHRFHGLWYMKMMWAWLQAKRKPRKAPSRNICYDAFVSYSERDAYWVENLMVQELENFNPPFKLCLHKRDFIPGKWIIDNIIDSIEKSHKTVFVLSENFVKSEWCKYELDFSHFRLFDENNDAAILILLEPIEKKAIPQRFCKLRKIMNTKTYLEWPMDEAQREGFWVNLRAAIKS", "assay": "TLR reporter (SEAP/NFkB) test on HEK293 cell line with hTLR2", "description": "(§1) The extract and the controls are tested in duplicate on recombinant HEK-293 cell lines. These cell lines functionally over-express human TLR proteins as well as a reporter gene that is a secreted alkaline phosphatase (SEAP). The production of this reporter gene is governed by an NFkB inducible promoter. The results of activation of the TLR reporters are given in the form of optical density (OD) values.\n(§2) CU-T12-9 and FSL-1 are used on the cells expressing hTLR2 to respectively assess the TLR1/TLR2 and TLR2/TLR6 activities.\n(§3) […] CU-T12-9 is tested at 200 nM and 300 nM.\n(§4) 20 μl of the extract have been used to stimulate the reporter hTLR cell line in 200 μl of reaction volume. For the dose-response on the HEK-Blue-hTLR5 cell lines, the liquid extract obtained according to Example 1 has been tested in duplicate, at the following concentrations: 1000 μg/ml, 500 μg/ml, 250 μg/ml, 125 μg/ml, 62.5 μg/ml, 31.5 μg/ml. For the TLR1/2 and/or TLR2/6 specificity, the liquid extract obtained according to Example 1 has been tested in duplicate at the following concentrations: 100 μg/ml, 30 μg/ml and 10 μg/ml."}, "hTLR2-1": {"target": "T2, hTLR2-1 (Homo sapiens, UniProt O60603+Q15399)", "T2 construct": "host or cells: HEK-293", "T2 sequence (O60603 21-784)": "as above", "T2 sequence (Q15399 25-786)": "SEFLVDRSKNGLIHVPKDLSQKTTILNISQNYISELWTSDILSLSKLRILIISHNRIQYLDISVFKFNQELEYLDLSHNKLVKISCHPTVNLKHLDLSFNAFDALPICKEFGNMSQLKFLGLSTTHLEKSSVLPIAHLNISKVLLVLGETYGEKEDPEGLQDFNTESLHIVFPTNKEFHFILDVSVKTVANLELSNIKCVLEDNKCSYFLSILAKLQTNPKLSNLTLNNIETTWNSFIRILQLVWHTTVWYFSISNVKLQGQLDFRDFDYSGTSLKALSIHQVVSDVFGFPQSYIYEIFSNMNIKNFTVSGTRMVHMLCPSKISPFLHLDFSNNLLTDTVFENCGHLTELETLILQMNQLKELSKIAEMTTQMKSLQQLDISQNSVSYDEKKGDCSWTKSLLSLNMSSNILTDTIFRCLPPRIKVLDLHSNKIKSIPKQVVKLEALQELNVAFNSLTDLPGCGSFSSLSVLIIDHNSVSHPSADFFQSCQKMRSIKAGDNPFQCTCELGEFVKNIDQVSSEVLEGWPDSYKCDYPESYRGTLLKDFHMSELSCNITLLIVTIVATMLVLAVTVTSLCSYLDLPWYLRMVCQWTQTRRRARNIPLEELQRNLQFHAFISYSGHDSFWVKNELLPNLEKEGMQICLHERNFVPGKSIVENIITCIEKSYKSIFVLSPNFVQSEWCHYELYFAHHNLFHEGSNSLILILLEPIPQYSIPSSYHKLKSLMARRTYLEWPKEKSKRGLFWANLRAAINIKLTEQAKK", "assay": "TLR reporter (SEAP/NFkB) test on HEK293 cell line with hTLR2-1", "description": "as §1, §2, §3\n20 μl of the extract have been used to stimulate the reporter hTLR cell line in 200 μl of reaction volume. For the dose-response on the HEK-Blue-hTLR5 cell lines, the liquid extract obtained according to Example 1 has been tested in duplicate, at the following concentrations: 1000 μg/ml, 500 μg/ml, 250 μg/ml, 125 μg/ml, 62.5 μg/ml, 31.5 μg/ml. […]"}, "hTLR2-6": {"target": "T3, hTLR2-6 (Homo sapiens, UniProt O60603+Q9Y2C9)", "T3 construct": "host or cells: HEK-293", "T3 sequence (O60603 21-784)": "as the sequence (O60603 21-784) above", "T3 sequence (Q9Y2C9 32-796)": "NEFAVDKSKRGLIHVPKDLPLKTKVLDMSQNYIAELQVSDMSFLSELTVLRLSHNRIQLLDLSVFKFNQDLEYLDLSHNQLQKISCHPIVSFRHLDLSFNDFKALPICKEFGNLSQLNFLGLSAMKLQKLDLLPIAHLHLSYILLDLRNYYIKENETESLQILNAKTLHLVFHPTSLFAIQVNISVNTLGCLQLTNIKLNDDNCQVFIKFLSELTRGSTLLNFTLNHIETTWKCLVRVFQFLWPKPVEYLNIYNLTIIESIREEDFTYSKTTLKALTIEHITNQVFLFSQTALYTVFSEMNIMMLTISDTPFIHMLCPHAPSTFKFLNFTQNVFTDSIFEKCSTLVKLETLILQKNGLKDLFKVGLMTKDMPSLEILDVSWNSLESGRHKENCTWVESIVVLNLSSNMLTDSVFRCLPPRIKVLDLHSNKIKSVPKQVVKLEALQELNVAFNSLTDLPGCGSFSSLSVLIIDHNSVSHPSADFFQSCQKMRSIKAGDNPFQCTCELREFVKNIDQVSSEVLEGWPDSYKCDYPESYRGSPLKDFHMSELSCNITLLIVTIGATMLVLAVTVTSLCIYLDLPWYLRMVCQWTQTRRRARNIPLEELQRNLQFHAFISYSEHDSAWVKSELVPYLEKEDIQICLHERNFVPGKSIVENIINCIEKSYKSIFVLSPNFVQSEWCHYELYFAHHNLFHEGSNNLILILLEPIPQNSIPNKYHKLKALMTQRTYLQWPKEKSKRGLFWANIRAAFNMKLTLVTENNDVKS", "assay": "TLR reporter (SEAP/NFkB) test on HEK293 cell line with hTLR2-6", "description": "as §1, §2, §3, §4"}, "Claudin 1": {"system": "Claudin 1", "assay": "Gene expression by RT-qPCR in normal human epidermal keratinocytes, Claudin 1", "conditions": "NHEK, 24 hours; 1.00E−07 M, DMSO", "description": "(§5) Normal human epidermal keratinocytes (NHEK) have been sown in 48-well culture plates and then cultured in a culture medium for 3 days at 37° C. and 5% of CO2 with a renewal of the culture medium after first 24 hours of culture. At the end of the incubation, the culture medium has been replaced with a test medium (supplemented with 1.5 mM of CaCl2)) containing no (control) or containing the compounds to be tested, and the cells has then been incubated for 24 hours. All conditions have been carried out in duplicate. At the end of the treatments, the culture media have been eliminated and the cells have been rinsed twice with PBS (without CaCl2, without MgCl2). Afterwards, the total RNA has been isolated using an extraction kit. The quantification of RNA and its quality control have been analyzed by means of Labchip GX (Perkin Elmer). The expression of the selected transcripts has been analyzed by quantitative PCR in two steps. First of all, the cDNAs have been transcribed in the opposite direction from the RNAs. Afterwards, the quantitative PCR experiments have been carried out using a real-time PCR system. […] The RNAs are extracted, quantified and their quality is checked before performing their reverse transcription into cDNA. Finally, an RT-qPCR is carried out for each experimental condition in order to quantify the expression of the set of selected genes."}, "Cornifelin": {"system": "Cornifelin", "assay": "Gene expression by RT-qPCR in normal human epidermal keratinocytes, Cornifelin", "conditions": "NHEK, 24 hours; 1.00E−07 M, DMSO", "description": "as §5"}, "Zonula Occludens-1": {"system": "Zonula Occludens-1", "assay": "Gene expression by RT-qPCR in normal human epidermal keratinocytes, Zonula Occludens-1", "conditions": "NHEK, 24 hours; 1.00E−07 M, DMSO", "description": "as §5"}}, "note": "Where “and” joins values, the source holds several entries; their conditions need not be identical. Equal entries are not always repeated."}
{"compound": "CCCCC[C@H](O)/C=C/[C@H]1[C@H](O)CC(=O)[C@@H]1C/C=C\\CCCC(=O)O", "note": "[PGE2]", "values": [{"measurement": "IgE % of the stimulated control", "setting": "[1]; 1 μM", "value": 58, "unit": "%"}, {"measurement": "IgE Mean", "setting": "[1]; 1 μM", "value": 2126, "unit": "pg/mL"}, {"measurement": "IgE", "setting": "[1]; 1 μM", "value": "2942 pg/mL and 1495 pg/mL and 1941 pg/mL"}]}
{"compound": "CNc1ccc([N+](=O)[O-])cc1-n1cnc(-c2ccc(C(F)(F)F)cc2)c1", "note": "[CUT12-9]", "values": [{"measurement": "DO", "setting": "hTLR2; 200 nM", "value": 3.066}, {"measurement": "DO", "setting": "hTLR2; 300 nM", "value": 3.227}, {"measurement": "DO", "setting": "hTLR2-1; 200 nM", "value": 1.474}, {"measurement": "DO", "setting": "hTLR2-1; 300 nM", "value": 1.667}, {"measurement": "DO", "setting": "hTLR2-6; 200 nM", "value": 0.029}, {"measurement": "DO", "setting": "hTLR2-6; 300 nM", "value": 0.024}]}
{"compound": "CpG-ODN 2006", "values": [{"measurement": "IgE % of the stimulated control", "setting": "[1]; 3 μM", "value": "<3", "unit": "%"}, {"measurement": "IgE Mean", "setting": "[1]; 3 μM", "value": "<123", "unit": "pg/mL"}, {"measurement": "IgE % of the stimulated control", "setting": "[1]; 3 μM, listed as CpG-ODN2006", "value": "< 3", "unit": "%"}, {"measurement": "IgE", "setting": "[1]; 3 μM", "value": "<123", "unit": "pg/mL"}]}
{"compound": "FSL1", "values": [{"measurement": "DO", "setting": "hTLR2; 10 pg/ml", "value": 1.727}, {"measurement": "DO", "setting": "hTLR2; 30 pg/ml", "value": 2.174}, {"measurement": "DO", "setting": "hTLR2-1; 10 pg/ml", "value": 0.027}, {"measurement": "DO", "setting": "hTLR2-1; 30 pg/ml", "value": 0.013}, {"measurement": "DO", "setting": "hTLR2-6; 10 pg/ml", "value": 1.373}, {"measurement": "DO", "setting": "hTLR2-6; 30 pg/ml", "value": 2.047}]}
{"compound": "IFN-γ: reference compound, R&D Systems, ref. 285-IF-100/CF", "values": [{"measurement": "IgE % of the stimulated control", "setting": "[1]; 10 ng/ml", "value": 20, "unit": "%"}, {"measurement": "IgE Mean", "setting": "[1]; 10 ng/ml", "value": 738, "unit": "pg/mL"}, {"measurement": "IgE", "setting": "[1]; 10 ng/ml", "value": "1012 pg/mL and 166 pg/mL and 1036 pg/mL"}]}
{"compound": "CC1=C(/C=C/C(C)=C/C=C/C(C)=C/CO)C(C)(C)CCC1", "note": "[Retinol]", "values": [{"measurement": "Average expression of the genes, Claudin 1", "setting": "Claudin 1", "value": 0.63}, {"measurement": "Average expression of the genes, Cornifelin", "setting": "Cornifelin", "value": 0.77}, {"measurement": "Average expression of the genes, Zonula Occludens-1", "setting": "Zonula Occludens-1", "value": 1.61}]}
